In ChEMBL document CHEMBL5500358, “Identification of CH2-linked quinolone-aminopyrimidine hybrids as potent anti-MRSA agents: Low resistance potential and lack of cross-resistance with fluoroquinolone antibiotics” (Eur J Med Chem, 2024):
Converted amounts (≈) assume the structure as drawn.

Columns and labels:
Staphylococcus aureus [1] = experiment: Antibacterial activity against fluoroquinolone/methicillin resistant Staphylococcus aureus Mu50 incubated for 16 to 18 hrs by absorbance based analysis; type: functional; settings: time 16-18 hrs
Escherichia coli = experiment: Antibacterial activity against Escherichia coli ATCC 25922 incubated for 16 to 18 hrs by absorbance based analysis; type: functional; settings: time 16-18 hrs
Staphylococcus aureus [2] = experiment: Antibacterial activity against fluoroquinolone-sensitive methicillin resistant Staphylococcus aureus USA500 incubated for 16 to 18 hrs by absorbance based analysis; type: functional; settings: time 16-18 hrs
Staphylococcus aureus [3] = experiment: Antibacterial activity against fluoroquinolone-sensitive methicillin resistant Staphylococcus aureus ATCC 33591 incubated for 16 to 18 hrs by absorbance based analysis; type: functional; settings: time 16-18 hrs
[4] = Metabolic stability in rat liver microsomes assessed as compound remaining at 1 uM measured after 60 mins by LC-MS/MS analysis; type: ADME, Microsome; settings: read-out: Stability
[5] = Metabolic stability in human liver microsomes assessed as microsomal intrinsic clearance at 1 uM by LC-MS/MS analysis; type: ADME, Microsome; settings: read-out: CLH
[6] = Metabolic stability in human liver microsomes assessed as drug elimination rate constant at 1 uM by LC-MS/MS analysis; type: ADME, Microsome
[7] = Metabolic stability in rat liver microsomes assessed as microsomal intrinsic clearance at 1 uM by LC-MS/MS analysis; type: ADME, Microsome; settings: read-out: CLH
[8] = Metabolic stability in human liver microsomes assessed as elimination half life at 1 uM by LC-MS/MS analysis; type: ADME, Microsome; settings: read-out: beta t1/2
[9] = Metabolic stability in rat liver microsomes assessed as elimination half life at 1 uM by LC-MS/MS analysis; type: ADME, Microsome; settings: read-out: beta t1/2
[10] = Metabolic stability in human liver microsomes assessed as compound remaining at 1 uM measured after 60 mins by LC-MS/MS analysis; type: ADME, Microsome; settings: read-out: Stability
[11] = Metabolic stability in rat liver microsomes assessed as drug elimination rate constant at 1 uM by LC-MS/MS analysis; type: ADME, Microsome

| Structure (SMILES) | MIC (Staphylococcus aureus [1]) | MIC (Escherichia coli) | MIC (Staphylococcus aureus [2]) | MIC (Staphylococcus aureus [3]) | remaining at 1 h, 1 µM [4] | microsomal CLint at 1 µM [5] | k el at 1 µM [6] | microsomal CLint at 1 µM [7] | half-life at 1 µM [8] | half-life at 1 µM [9] | remaining at 1 h, 1 µM [10] | k el at 1 µM [11] |
| --- | --- | --- | --- | --- | --- | --- | --- | --- | --- | --- | --- | --- |
| O=C(O)c1cn(C2CC2)c2cc(Nc3nccc(Cc4ccc(F)cc4F)n3)c(F)cc2c1=O | 3.12 µg/mL (≈ 6.69 µM) | > 64 µg/mL | 3.12 µg/mL (≈ 6.69 µM) | 1 µg/mL (≈ 2.14 µM) | – | – | – | – | – | – | – | – |
| Cc1ncc2n1-c1ccc(Cl)cc1C(c1ccccc1F)=NC2 [MIDAZOLAM] | – | – | – | – | 0.48% | 1250 µL/min/mg | 0.00417 s⁻¹ | 1350 µL/min/mg | 2.77 min | 2.58 min | 0.691% | 0.00448 s⁻¹ |
| O=C(O)c1cn(C2CC2)c2cc(Nc3nccc(Cc4ccc(Cl)cc4)n3)ccc2c1=O | 1.56 µg/mL (≈ 3.49 µM) | > 64 µg/mL | 1.56 µg/mL (≈ 3.49 µM) | 0.5 µg/mL (≈ 1.12 µM) | – | – | – | – | – | – | – | – |
| Cc1ccc(Oc2ccnc(Nc3ccc4c(=O)c(C(=O)O)cn(C5CC5)c4c3)n2)cc1C | 0.39 µg/mL (≈ 0.881 µM) | > 64 µg/mL | 0.39 µg/mL (≈ 0.881 µM) | 0.5 µg/mL (≈ 1.13 µM) | – | – | – | – | 25.9 min | 8.7 min | – | – |
| O=C(O)c1cn(C2CC2)c2cc(Nc3nccc(Cc4ccc(Cl)c(Cl)c4)n3)ccc2c1=O | 1.56 µg/mL (≈ 3.24 µM) | > 64 µg/mL | 1.56 µg/mL (≈ 3.24 µM) | 0.5 µg/mL (≈ 1.04 µM) | – | – | – | – | – | – | – | – |
